“And” between values parts separate entries of the source, which are not always exact repeats. Equal values may be shown once. Inconclusive results and toxic doses are left out.
System: P388 leukemia ip, CD2F1 mice, survival T/C
Experiment: NCI In Vivo Anticancer Drug Screen. Data for tumor model P388 Leukemia (intraperitoneal) in CD2F1 (CDF1) mice
Conditions: endpoint: median survival time, higher = longer survival
Method in brief: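 Mice carrying the transplanted tumor received test compound or vehicle. Survival was recorded in each group, and the value is the treated-group measurement divided by that of the vehicle-treated control group.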

[1] = dose: 100.0 mg/kg/injection, schedule: Q04DX002 (ip), vehicle: saline with Tween-80
[2] = dose: 200.0 mg/kg/injection, schedule: Q04DX002 (ip), vehicle: saline with Tween-80
[3] = dose: 400.0 mg/kg/injection, schedule: Q04DX002 (ip), vehicle: saline with Tween-80
[4] = dose: 50.0 mg/kg/injection, schedule: Q01DX005 (ip), vehicle: saline with Tween-80
[5] = dose: 100.0 mg/kg/injection, schedule: Q01DX005 (ip), vehicle: saline with Tween-80
[6] = dose: 50.0 mg/kg/injection, schedule: Q01DX005 (ip), vehicle: Klucel (hydroxypropylcellulose) (HPC)
[7] = dose: 100.0 mg/kg/injection, schedule: Q01DX005 (ip), vehicle: Klucel (hydroxypropylcellulose) (HPC)
[8] = dose: 200.0 mg/kg/injection, schedule: Q01DX005 (ip), vehicle: Klucel (hydroxypropylcellulose) (HPC)
[9] = dose: 60.0 mg/kg/injection, schedule: Q01DX005 (ip), vehicle: Klucel (hydroxypropylcellulose) (HPC)
[10] = dose: 200.0 mg/kg/injection, schedule: Q01DX005 (ip), vehicle: saline with Tween-80
[11] = dose: 100.0 mg/kg/injection, schedule: Q04DX003 (ip), vehicle: saline with Tween-80
[12] = dose: 200.0 mg/kg/injection, schedule: Q04DX003 (ip), vehicle: saline with Tween-80
[13] = dose: 400.0 mg/kg/injection, schedule: Q04DX003 (ip), vehicle: saline with Tween-80
[14] = dose: 50.0 mg/kg/injection, schedule: Q01DX009 (ip), vehicle: saline with Tween-80
[15] = dose: 100.0 mg/kg/injection, schedule: Q01DX009 (ip), vehicle: saline with Tween-80
[16] = dose: 25.0 mg/kg/injection, schedule: Q01DX009 (ip), vehicle: saline
[17] = dose: 50.0 mg/kg/injection, schedule: Q01DX009 (ip), vehicle: saline
[18] = dose: 100.0 mg/kg/injection, schedule: Q01DX009 (ip), vehicle: saline
[19] = dose: 200.0 mg/kg/injection, schedule: Q01DX009 (ip), vehicle: saline
[20] = dose: 60.0 mg/kg/injection, schedule: Q01DX005 (ip), vehicle: saline with Tween-80

NC(=O)NNC(=O)NNC(N)=O
T/C (dose: 100.0 mg/kg/injection, schedule: Q04DX003 (ip), vehicle: saline): 98 % of control
T/C (dose: 200.0 mg/kg/injection, schedule: Q04DX003 (ip), vehicle: saline): 96 % of control
T/C (dose: 400.0 mg/kg/injection, schedule: Q04DX003 (ip), vehicle: saline): 106 % of control

CC/C(=N\Nc1cc(C)[nH]c(=O)c1)c1ccccc1
T/C (dose: 100.0 mg/kg/injection, schedule: Q01DX001 (ip), vehicle: saline with Tween-80): 98 % of control
T/C (dose: 200.0 mg/kg/injection, schedule: Q01DX001 (ip), vehicle: saline with Tween-80): 86 % of control
T/C (dose: 400.0 mg/kg/injection, schedule: Q01DX001 (ip), vehicle: saline with Tween-80): 89 % of control

CSCCCNC(=O)c1csc(-c2csc(CCNC(C)=O)n2)n1
T/C [1]: 98 % of control
T/C [2]: 95 % of control
T/C [3]: 97 % of control

O=C1OC(c2ccccc2)=N/C1=C\c1cccc([N+](=O)[O-])c1
T/C (dose: 50.0 mg/kg/injection, schedule: Q04DX002 (ip), vehicle: saline with Tween-80): 96 % of control
T/C [1]: 97 % of control
T/C [2]: 99 % of control
T/C [3]: 99 % of control

CC(C)(C)N=S=Nc1c(F)c(F)c(F)c(F)c1F
T/C [4]: 110 % of control
T/C [5]: 106 % of control

O=[N+]([O-])c1ccc(-c2nnn(CCCN3CCOCC3)c2N2CCCCC2)cc1
T/C [6]: 107 % of control
T/C [7]: 107 % of control
T/C [8]: 107 % of control

Oc1cc2cccc[n+]2c2ccccc12
T/C (dose: 15.0 mg/kg/injection, schedule: Q01DX005 (ip), vehicle: Klucel (hydroxypropylcellulose) (HPC)): 99 % of control
T/C (dose: 30.0 mg/kg/injection, schedule: Q01DX005 (ip), vehicle: Klucel (hydroxypropylcellulose) (HPC)): 101 % of control
T/C [9]: 118 % of control and 97 % of control

Cn1c(NC(=O)C(F)(F)F)cc(=O)n(C)c1=O
T/C [4]: 102 % of control
T/C [5]: 95 % of control
T/C [10]: 101 % of control

O=c1[nH]c2c(Cl)c(Cl)c(Cl)c(Cl)c2[nH]c1=O
T/C [4]: 90 % of control
T/C [5]: 87 % of control

COC1(C)OC23C(=O)N(C)C(=O)N(C)C2(O1)N(C(C)=O)C(=O)N3C (configuration not stated)
T/C [4]: 100 % of control
T/C [5]: 105 % of control
T/C [10]: 98 % of control

O=C1CCCCCCCCCCC1C(O)(C(F)(F)F)C(F)(F)F (configuration not stated)
T/C [11]: 100 % of control
T/C [12]: 90 % of control
T/C [13]: 100 % of control

CC1(NC(=O)N(CCCl)N=O)CCCC1
T/C (dose: 25.0 mg/kg/injection, schedule: Q01DX009 (ip), vehicle: saline with Tween-80): 104 % of control
T/C [14]: 104 % of control
T/C (dose: 50.0 mg/kg/injection, schedule: Q04DX003 (ip), vehicle: saline with Tween-80): 100 % of control
T/C [15]: 109 % of control
T/C [11]: 100 % of control

O=C1c2ccc(=O)[nH]c2C(=O)C2CC3=C(CCCC3)CC12 (configuration not stated)
T/C [4]: 109 % of control
T/C [5]: 97 % of control
T/C [10]: 94 % of control

COCCN(CCOC)C1C2=C(CCCC2)OS(=O)(=O)C1c1ccccc1 (configuration not stated)
T/C [9]: 101 % of control
T/C (dose: 120.0 mg/kg/injection, schedule: Q01DX005 (ip), vehicle: Klucel (hydroxypropylcellulose) (HPC)): 105 % of control
T/C (dose: 240.0 mg/kg/injection, schedule: Q01DX005 (ip), vehicle: Klucel (hydroxypropylcellulose) (HPC)): 104 % of control

CCOP(=S)(N1CC1(C)C)N1CC1(C)C (configuration not stated)
T/C [16]: 109 % of control
T/C [17]: 109 % of control
T/C [15]: 154 % of control
T/C [18]: 109 % of control
T/C [11]: 109 % of control
T/C (dose: 264.0 mg/kg/injection, schedule: Q04DX003 (ip), vehicle: saline with Tween-80): 172 % of control
T/C [13]: 168 % of control and 204 % of control

COCC(=O)Oc1ccc[nH]c1=O
T/C (dose: 12.5 mg/kg/injection, schedule: Q01DX009 (ip), vehicle: saline): 101 % of control and 113 % of control
T/C [16]: 103 % of control and 107 % of control
T/C [17]: 100 % of control and 106 % of control
T/C [18]: 106 % of control and 113 % of control
T/C [19]: 100 % of control and 103 % of control

Cc1[nH]c(=O)[nH]c(=O)c1/C=C/C(=O)O
T/C (dose: 25.0 mg/kg/injection, schedule: Q01DX009 (ip), vehicle: Klucel (hydroxypropylcellulose) (HPC)): 100 % of control
T/C (dose: 50.0 mg/kg/injection, schedule: Q01DX009 (ip), vehicle: Klucel (hydroxypropylcellulose) (HPC)): 100 % of control
T/C (dose: 100.0 mg/kg/injection, schedule: Q01DX009 (ip), vehicle: Klucel (hydroxypropylcellulose) (HPC)): 102 % of control
T/C (dose: 200.0 mg/kg/injection, schedule: Q01DX009 (ip), vehicle: Klucel (hydroxypropylcellulose) (HPC)): 102 % of control

CC(C)(C)N1CC(O)C1
T/C (dose: 50.0 mg/kg/injection, schedule: Q01DX001 (ip), vehicle: saline): 100 % of control
T/C (dose: 100.0 mg/kg/injection, schedule: Q01DX001 (ip), vehicle: saline): 98 % of control
T/C (dose: 200.0 mg/kg/injection, schedule: Q01DX001 (ip), vehicle: saline): 93 % of control

CC(C)(C)N1OC1C(Cl)(Cl)Cl (configuration not stated)
T/C [20]: 101 % of control
T/C (dose: 120.0 mg/kg/injection, schedule: Q01DX005 (ip), vehicle: saline with Tween-80): 104 % of control
T/C (dose: 240.0 mg/kg/injection, schedule: Q01DX005 (ip), vehicle: saline with Tween-80): 104 % of control

C/C(=C\c1ccc(Cl)cc1)C(=O)N1CCN(c2ccccc2)CC1
T/C [6]: 105 % of control
T/C [7]: 91 % of control
T/C [8]: 96 % of control

CCOC(=O)CC1(O)CS/C(=C(\C#N)C(=O)OCC)S1 (configuration not stated)
T/C [4]: 102 % of control
T/C [5]: 102 % of control
T/C [10]: 98 % of control

O=P(c1ccccc1)(c1ccccc1)c1ccccc1.O=P(c1ccccc1)(c1ccccc1)c1ccccc1.O=S(=O)(O)O.[Fe]
T/C (dose: 100.0 mg/kg/injection, schedule: Q04DX003 (ip), vehicle: Klucel (hydroxypropylcellulose) (HPC)): 93 % of control
T/C (dose: 200.0 mg/kg/injection, schedule: Q04DX003 (ip), vehicle: Klucel (hydroxypropylcellulose) (HPC)): 89 % of control

c1ccc2nc3nc4ccccc4nc3nc2c1
T/C (dose: 15.0 mg/kg/injection, schedule: Q01DX009 (ip), vehicle: saline with Tween-80): 92 % of control
T/C (dose: 30.0 mg/kg/injection, schedule: Q01DX009 (ip), vehicle: saline with Tween-80): 114 % of control
T/C (dose: 50.0 mg/kg/injection, schedule: Q01DX005 (ip), vehicle: Klucel + Tween-80): 90 % of control
T/C [14]: 103 % of control
T/C (dose: 60.0 mg/kg/injection, schedule: Q01DX009 (ip), vehicle: saline with Tween-80): 111 % of control
T/C (dose: 100.0 mg/kg/injection, schedule: Q01DX005 (ip), vehicle: Klucel + Tween-80): 96 % of control
T/C [15]: 113 % of control
T/C (dose: 200.0 mg/kg/injection, schedule: Q01DX005 (ip), vehicle: Klucel + Tween-80): 93 % of control
T/C (dose: 200.0 mg/kg/injection, schedule: Q01DX009 (ip), vehicle: saline with Tween-80): 107 % of control

COc1cc2c(cc1O)-c1c(cnn1-c1ccccc1)CCC2
T/C [17]: 119 % of control
T/C [18]: 118 % of control
T/C [19]: 94 % of control

Cc1ccc(NC(=O)/C(Cl)=C(\Cl)C(=O)O)cc1C
T/C (dose: 3.75 mg/kg/injection, schedule: Q01DX005 (ip), vehicle: saline with Tween-80): 96 % of control
T/C (dose: 7.5 mg/kg/injection, schedule: Q01DX005 (ip), vehicle: saline with Tween-80): 102 % of control
T/C (dose: 15.0 mg/kg/injection, schedule: Q01DX005 (ip), vehicle: saline with Tween-80): 103 % of control and 110 % of control
T/C [20]: 104 % of control

CSc1ccc(NC(=O)Nc2nccs2)cc1
T/C [11]: 95 % of control
T/C [12]: 100 % of control
T/C [13]: 90 % of control

From PubChem BioAssay AID330 (DTP/NCI, 2004)
